Measured values published in PMC12604922, “Synthesis, biological evaluation, and theoretical studies of 2-amino-3-cyano-4- (L-phenylalaninyl)quinolines: anticancer potential and EGFR inhibition” (Turkish Journal of Chemistry, 2025).
Where two headings read alike, the source gives them in different places.

Assays:
[1] = system: MCF-7 (human breast adenocarcinoma) cells; experiment: MTT cytotoxicity assay (24 h), MCF-7
Method: (§1) The synthesized compounds were evaluated for anticancer activity against two cell lines: human lung adenocarcinoma (A549) and human breast adenocarcinoma (MCF-7). To assess selectivity, the compounds were also tested on healthy mouse embryonic fibroblast (NIH3T3) cells. The culture medium was supplemented with fetal calf serum, 100 IU/mL penicillin, and 100 μg/mL streptomycin. […] The cytotoxic effects of the compounds were measured using the MTT assay, as described previously [26–28].

[2] = system: A549 (human lung adenocarcinoma) cells; experiment: MTT cytotoxicity assay (24 h), A549; details: A549, 24 h, read-out: IC50 (μM) A549, A549 cells, 24 h MTT
Method: as §1

[3] = system: NIH3T3 (healthy mouse embryonic fibroblast) cells; experiment: MTT cytotoxicity assay (24 h), NIH3T3; details: for IC50: Mus musculus, NIH3T3, 24 h, read-out: IC50 (μM) NIH3T3; for Toxicity in NIH3T3 cell line: at concentrations effective against the A549 and MCF-7 cell lines
Method: as §1

wild-type EGFR = target: T1, wild-type EGFR (Homo sapiens, UniProt P00533); experiment: EGFR inhibition assay (luminescence kinase kit, Kinase-Glo Max); assay type: biochemical; details: recombinant wild-type EGFR, 30 °C, 40 min
T1 construct: purchased BPS Bioscience 40321
T1 sequence (P00533 25-1210): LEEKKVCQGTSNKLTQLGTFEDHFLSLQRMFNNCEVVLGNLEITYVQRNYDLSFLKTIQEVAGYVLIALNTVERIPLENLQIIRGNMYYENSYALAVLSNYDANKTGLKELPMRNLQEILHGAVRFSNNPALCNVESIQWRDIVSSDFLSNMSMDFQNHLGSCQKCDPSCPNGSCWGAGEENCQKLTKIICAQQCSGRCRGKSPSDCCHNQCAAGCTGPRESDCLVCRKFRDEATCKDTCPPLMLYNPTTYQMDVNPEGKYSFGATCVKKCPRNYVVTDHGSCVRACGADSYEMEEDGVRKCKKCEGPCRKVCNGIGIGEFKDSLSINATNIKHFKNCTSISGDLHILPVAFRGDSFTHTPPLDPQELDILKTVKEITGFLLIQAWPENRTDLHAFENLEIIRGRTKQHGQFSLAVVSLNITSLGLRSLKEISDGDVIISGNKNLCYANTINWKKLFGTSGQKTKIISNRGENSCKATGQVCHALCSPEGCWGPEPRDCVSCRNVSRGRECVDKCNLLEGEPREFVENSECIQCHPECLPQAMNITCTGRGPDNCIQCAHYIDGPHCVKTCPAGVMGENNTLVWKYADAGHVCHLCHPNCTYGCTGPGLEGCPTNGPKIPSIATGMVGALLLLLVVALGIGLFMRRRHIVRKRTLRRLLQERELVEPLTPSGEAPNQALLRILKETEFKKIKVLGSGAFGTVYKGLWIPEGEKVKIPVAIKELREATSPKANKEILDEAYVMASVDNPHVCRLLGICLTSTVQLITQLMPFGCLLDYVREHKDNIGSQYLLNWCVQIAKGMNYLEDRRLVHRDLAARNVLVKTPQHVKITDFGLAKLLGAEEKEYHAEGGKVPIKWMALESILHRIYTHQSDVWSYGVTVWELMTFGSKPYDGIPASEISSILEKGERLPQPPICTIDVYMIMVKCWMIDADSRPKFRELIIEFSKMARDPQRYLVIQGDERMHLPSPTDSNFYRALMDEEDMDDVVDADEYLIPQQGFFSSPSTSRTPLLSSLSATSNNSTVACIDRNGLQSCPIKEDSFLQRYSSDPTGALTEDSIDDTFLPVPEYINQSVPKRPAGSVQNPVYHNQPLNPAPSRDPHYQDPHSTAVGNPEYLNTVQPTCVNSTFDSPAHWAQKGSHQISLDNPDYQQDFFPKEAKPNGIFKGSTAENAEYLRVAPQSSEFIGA

[4] = Homo sapiens, MCF7, 24 h, read-out: IC50 (μM) MCF7, MCF-7 cells, 24 h MTT
[5] = read-out: IC50 (μM) MCF7, MCF-7 cells, 24 h MTT

IC50 (wild-type EGFR) [µM]	Compound	IC50 [1, 4] [µM]	IC50 [2] [µM]	IC50 [3] [µM]	IC50 [1, 5] [µM]	Toxicity in NIH3T3 cell line [3]
–	COC(=O)[C@H](Cc1ccccc1)Nc1c(C#N)c(N)nc2cc(C)ccc12 [Compound 4b, methyl (2-amino-3-cyano-7-methylquinolin-4-yl)-L-phenylalaninate]	> 100	> 100	> 100	–	–
–	COC(=O)[C@H](Cc1ccccc1)Nc1c(C#N)c(N)nc2cc(F)ccc12 [Compound 4c, methyl (2-amino-3-cyano-7-fluoroquinolin-4-yl)-L-phenylalaninate]	27.2 ± 1.01	23.6 ± 0.523	30.5 ± 1.32	–	–
–	COC(=O)[C@H](Cc1ccccc1)Nc1c(C#N)c(N)nc2ccc(Br)cc12 [Compound 4f, methyl (2-amino-6-bromo-3-cyanoquinolin-4-yl)-L-phenylalaninate]	> 100	> 100	> 100	–	–
0.058 ± 0.0026	COC(=O)[C@H](Cc1ccccc1)Nc1c(C#N)c(N)nc2ccc(Cl)cc12 [Compound 4e, methyl (2-amino-6-chloro-3-cyanoquinolin-4-yl)-L-phenylalaninate]	< 10	–	56.3 ± 2.06	6.11 ± 0.272	nontoxic
–	COC(=O)[C@H](Cc1ccccc1)Nc1c(C#N)c(N)nc2ccccc12 [Compound 4a, methyl (2-amino-3-cyanoquinolin-4-yl)-L-phenylalaninate]	> 100	> 100	> 100	–	–
0.069 ± 0.0027	COC(=O)[C@H](Cc1ccccc1)Nc1c(C#N)c(N)nc2cc(Cl)ccc12 [Compound 4d, methyl (2-amino-7-chloro-3-cyanoquinolin-4-yl)-L-phenylalaninate]	< 10	–	> 100	7.71 ± 0.217	nontoxic
–	COc1cccc2c1C(=O)c1c(O)c3c(c(O)c1C2=O)C[C@@](O)(C(=O)CO)C[C@@H]3O[C@H]1C[C@H](N)[C@H](O)[C@H](C)O1 [Doxorubicin, reference compound]	–	11 ± 0.247	> 100	–	–
